Converted amounts (≈) assume the structure as drawn.
Assays:
Bacillus anthracis [1] = assay: Antibacterial activity against Bacillus anthracis Sterne after 16 hrs by modified alamar blue microdilution broth assay; assay type: functional
Bacillus anthracis [2] = assay: Inhibition of histidine-tagged Bacillus anthracis Sterne recombinant DHFR expressed in Escherichia coli BL21 Star (DE3)pLysS up to 3 mins; settings: BL21, 0.05 h
Dihydrofolate reductase [3] = biological target: T1, Dihydrofolate reductase (Homo sapiens, UniProt P00374); assay: Inhibition of human recombinant DHFR
T1 sequence (P00374 whole entry): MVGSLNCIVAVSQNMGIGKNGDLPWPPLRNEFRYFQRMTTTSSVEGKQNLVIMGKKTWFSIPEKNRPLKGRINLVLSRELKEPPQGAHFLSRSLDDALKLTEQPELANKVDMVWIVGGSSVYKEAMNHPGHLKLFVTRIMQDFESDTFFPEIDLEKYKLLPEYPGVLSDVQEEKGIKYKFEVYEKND

Bacillus anthracis [4] = assay: Antibacterial activity against Bacillus anthracis Ames (NR-411) after 16 hrs by modified alamar blue microdilution broth assay; assay type: functional; settings: Ames NR-411, 16 h
Bacillus cereus = assay: Antibacterial activity against Bacillus cereus up to 10 hrs by growth inhibition assay; assay type: functional
[5] = Inhibition of Bacillus cereus recombinant DHFR expressed in Escherichia coli BL21(DE3) assessed as enzyme-dependent NADPH consumption
Dihydrofolate reductase [6] = biological target: T2, Dihydrofolate reductase (Rattus norvegicus, UniProt Q920D2); assay: Inhibition of rat DHFR
T2 sequence (Q920D2 whole entry): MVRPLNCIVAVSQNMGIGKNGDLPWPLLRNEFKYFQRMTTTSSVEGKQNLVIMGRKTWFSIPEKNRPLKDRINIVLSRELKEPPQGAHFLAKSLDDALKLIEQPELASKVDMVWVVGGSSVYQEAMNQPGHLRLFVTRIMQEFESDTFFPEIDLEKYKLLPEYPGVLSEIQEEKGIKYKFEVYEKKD

[7] = Selectivity ratio of IC50 for human recombinant DHFR to IC50 for histidine-tagged Bacillus anthracis Sterne recombinant DHFR

SMILES	MIC (Bacillus anthracis [1])	IC50 (Bacillus anthracis [2])	IC50 (Dihydrofolate reductase [3])	MIC (Bacillus anthracis [4])	MIC50 (Bacillus cereus)	IC50 [5]	IC50 (Dihydrofolate reductase [6])	Ratio IC50 [7]
COc1cc(Cc2cnc(N)nc2N)cc(/C=C/C(=O)N2N=Cc3ccccc3C2c2ccc(CO)cc2)c1O (configuration not stated)	≤ 128 µg/mL	69 nM	> 24000 nM	–	–	–	–	–
COc1cc(Cc2cnc(N)nc2N)cc(/C=C/C(=O)N2N=Cc3ccccc3C2CCCO)c1OC (configuration not stated)	≤ 64 µg/mL	120 nM	> 25000 nM	> 102 µg/mL	2.6 µg/mL (≈ 5.17 µM)	270 nM	25000 nM	–
COc1cc(Cc2cnc(N)nc2N)cc(/C=C/C(=O)N2Cc3ccccc3C=N2)c1OC	> 128 µg/mL	–	–	–	–	37000 nM	–	–
COc1cc(Cc2cnc(N)nc2N)cc(/C=C/C(=O)N2N=Cc3ccccc3C2C2CCCCC2)c1OC (configuration not stated)	≤ 12.8 µg/mL	260 nM	> 19000 nM	≤ 12.8 µg/mL	2.6 µg/mL (≈ 4.94 µM)	270 nM	25000 nM	–
COc1cc(Cc2cnc(N)nc2N)cc(/C=C/C(=O)N2N=Cc3ccccc3C2c2ccccc2)c1OC (configuration not stated)	≤ 25.6 µg/mL	46 nM	> 16000 nM	> 51.2 µg/mL	2.6 µg/mL (≈ 4.99 µM)	270 nM	25000 nM	> 348
COc1cc(Cc2cnc(N)nc2N)cc(/C=C/C(=O)N2N=Cc3ccccc3C2C2CCCC2)c1OC (configuration not stated)	≤ 25.6 µg/mL	200 nM	> 22000 nM	≤ 12.8 µg/mL	2.6 µg/mL (≈ 5.07 µM)	270 nM	25000 nM	> 110
COc1cc(Cc2cnc(N)nc2N)cc(CCC(=O)N2N=Cc3ccccc3C2C)c1OC (configuration not stated)	≤ 64 µg/mL	92 nM	> 28000 nM	≤ 64 µg/mL	–	37000 nM	–	–
CCCCC1c2ccccc2C=NN1C(=O)/C=C/c1cc(Cc2cnc(N)nc2N)cc(OC)c1OC (configuration not stated)	≤ 12.8 µg/mL	170 nM	> 20000 nM	≤ 12.8 µg/mL	2.6 µg/mL (≈ 5.19 µM)	270 nM	25000 nM	> 118
CCCC1c2ccccc2C=NN1C(=O)/C=C/c1cc(Cc2cnc(N)nc2N)cc(O)c1OC (configuration not stated)	≤ 12.8 µg/mL	54 nM	110000 nM	≤ 16 µg/mL	2.6 µg/mL (≈ 5.5 µM)	270 nM	25000 nM	2040
COC(=O)C(C)(C)C1c2ccccc2C=NN1C(=O)/C=C/c1cc(Cc2cnc(N)nc2N)cc(OC)c1OC (configuration not stated)	≤ 128 µg/mL	300 nM	813000 nM	–	2.6 µg/mL (≈ 4.77 µM)	270 nM	25000 nM	–
COc1cc(Cc2cnc(N)nc2N)cc(/C=C/C(=O)N2N=Cc3ccccc3C2c2ccccc2)c1OCCN1CCOCC1 (configuration not stated)	≤ 32 µg/mL	170 nM	> 21000 nM	≤ 25.6 µg/mL	–	–	–	–
COc1cc(Cc2cnc(N)nc2N)cc(/C=C/C(=O)N2N=Cc3ccccc3C2c2ccccc2CO)c1OC (configuration not stated)	> 128 µg/mL	–	–	–	–	–	–	–
COc1cc(Cc2cnc(N)nc2N)cc(/C=C/C(=O)N2N=Cc3ccccc3C2c2ccc(CO)cc2)c1OC (configuration not stated)	≤ 128 µg/mL	97 nM	> 23000 nM	–	–	–	–	–
COc1cc(Cc2cnc(N)nc2N)cc(/C=C/C(=O)N2N=Cc3ccccc3C2c2ccc(O)cc2)c1OC (configuration not stated)	> 128 µg/mL	–	–	–	–	–	–	–
COc1cc(Cc2cnc(N)nc2N)cc(/C=C/C(=O)N2N=Cc3ccccc3C2c2ccc(C)cc2)c1OC (configuration not stated)	≤ 64 µg/mL	150 nM	> 19000 nM	≤ 51.2 µg/mL	2.6 µg/mL (≈ 4.86 µM)	270 nM	25000 nM	> 127
COc1cc(Cc2cnc(N)nc2N)cc(/C=C/C(=O)N2N=Cc3ccccc3C2c2ccc(O)cc2)c1O (configuration not stated)	> 128 µg/mL	–	–	–	–	–	–	–
CCC1c2ccccc2C=NN1C(=O)/C=C/c1cc(Cc2cnc(N)nc2N)cc(OC)c1OC (configuration not stated)	≤ 32 µg/mL	96 nM	> 27000 nM	≤ 25.6 µg/mL	2.6 µg/mL (≈ 5.5 µM)	270 nM	25000 nM	> 281
COc1cc(Cc2cnc(N)nc2N)cc(OC)c1OC [TRIMETHOPRIM]	> 2050 µg/mL	–	–	–	–	–	–	–
COc1cc(Cc2cnc(N)nc2N)cc(/C=C/C(=O)N2N=Cc3ccccc3C2c2ccc(O)cc2)c1C(OC)OC (configuration not stated)	> 128 µg/mL	–	–	–	–	–	–	–
COc1cc(Cc2cnc(N)nc2N)cc(/C=C/C(=O)N2N=Cc3ccccc3C2c2ccc(CO)cc2)c1C(OC)OC (configuration not stated)	> 128 µg/mL	–	–	–	–	–	–	–
COc1cc(Cc2cnc(N)nc2N)cc(/C=C/C(=O)N2N=Cc3ccccc3C2c2ccccc2CN(C)C)c1OC (configuration not stated)	≤ 128 µg/mL	400 nM	> 42000 nM	–	–	–	–	–
COc1ncc(C2c3ccccc3C=NN2C(=O)/C=C/c2cc(Cc3cnc(N)nc3N)cc(OC)c2OC)c(OC)n1 (configuration not stated)	≤ 128 µg/mL	600 nM	> 22000 nM	–	–	–	–	–
